From patent US20220160762A1, “ENGINEERED IMMUNE CELLS” (NATIONAL UNIVERSITY OF SINGAPORE, priority 2019, published 2022)

Columns and labels:
CAR-Jurkat = assay: T cell stimulation assay with kinase inhibitor, IL-2 ELISA readout; type: cell-based, human; conditions: for IC50: Homo sapiens, T-cell, CAR-Jurkat stimulated with CHO-L2, 18 hrs, read-out: IC50 of inhibitor on IL-2 production
Experimental: (§1) Artificial antigen presenting CHO cells (APC-CHO) were seeded onto a 96 well flat plate at 2-3×10^4 per well one day before. For APC-CHO requiring peptide pulsing, peptide was added at 4 uM for 3 hrs, and then washed away before CAR-T or TCR-T cells were added. Each CAR-T cell or TCR T cell sample was counted and suspended at a concentration of 10^6 per ml in culturing RPMI medium. 200 ul per well of suspended cell solution was then added into APC-CHO pre-seeded plate. For inhibitor experiments, inhibitor was added accordingly into the cell mixture. Technical triplicates were performed for all experiments. The cells were incubated at 37° C., 5% CO2 for 18 hrs. After incubation, supernatant was collected for human IL-2 ELISA assay, which was performed according to the manufacturer's protocol (Invitrogen). The T cell pellets were resuspended for surface staining or used for another round of stimulation by repeating the method described above.

TCR-Jurkat = assay: as above; type: cell-based; conditions: Homo sapiens, TCR-Jurkat stimulated with CHO-L2, 18 hrs, read-out: IC50 of inhibitor on IL-2 production
Experimental: as §1

CAR-Jcam = assay: T cell stimulation assay with SFK inhibitor, IL-2 ELISA readout; type: cell-based, human; conditions: CAR-Jcam (LCK-deficient)
Experimental: as §1

IC50 (CAR-Jurkat) [nM] | IC50 (TCR-Jurkat) [nM] | Structure (SMILES) | IL-2 production after inhibitor was added (CAR-Jurkat; CAR-Jurkat) | IL-2 production after inhibitor was added (CAR-Jcam)
47 | 6.6 | COc1cc(-c2nn([C@H]3CC[C@H](N4CCN(C(C)=O)CC4)CC3)c3ncnc(N)c23)ccc1NC(=O)c1cc2ccccc2n1C [A770041] |  | 
 |  | CC(C)(C)n1nc(-c2ccc(Cl)cc2)c2c(N)ncnc21 [PP2] | entirely quenched | entirely quenched
3760 | 5580 | CN(C)S(=O)(=O)c1ccc2c(c1)/C(=C/c1cc3c([nH]1)CCCC3)C(=O)N2 [SU6656] |  | 
